Entries after “also recorded” stand apart in the source; their conditions may differ.
Assays:
[1] = test system: students taking the comprehensive examination and test; assay: ORE insulin in students before the comprehensive examination; format: in vivo, human; settings: 2-4 IU each side of the nose to the ORE, 1-2 hours before the examination, compared to controls
Experimental: In a study of students taking the comprehensive examination and test, we prescribed 2-4 IU insulin instilled on each sides of the nose delivered to the ORE in supine position, 1-2 hours before the examination using our delivery device. […] We are planning an expanded study and to analyze statistically to report its positive significance and its use in public speakers (T. R. Shantha, use of olfactory mucosal insulin to enhance the memory and recall before student examinations, written tests and before presentations in front of audience at meetings. Expanded study-under preparation.).

[2] = test system: patients with impaired cognition, depression, PTSD, stroke, concussion, brain injury; assay: ORE delivery of insulin alone or combined in impaired cognition, depression, PTSD, stroke, concussion and brain injury; format: in vivo, human; settings: olfactory mucosal delivery; declining memory in the aged, Parkinson's, depression of many causes
Description: We also provided the home therapy kit with these therapeutic agents and trained them in the method of delivery to ORE, so that they can administer on their own. Some of the patients received hyperbaric oxygen therapy also.

[3] = cited from earlier work
[4] = test system: receptors in the hippocampus and the frontal cortex; settings: rodent models, intranasal; cited from earlier work
[5] = test system: adults with AD and amnestic mild cognitive impairment; settings: cited from earlier work
[6] = test system: MCF-7 Human Breast Cancer Cells; settings: MCF-7 cells; cited from earlier work
TNF-alpha [7] = target: T1, TNF-alpha (Homo sapiens, UniProt P01375); assay: Etanercept administration in AD patients by different routes; format: in vivo; settings: compared to perispinal, epispinal or interspinal routes
T1 construct: endogenous in cells; host or cells: AD patients (in vivo)
Description: CNS Drugs 2009; 23 (9): 713-725. Richard C. Chou, Michael A. Kane, Shiva Gautam and Sanjay Ghirmire. Tumor Necrosis Factor Inhibition Reduces the Incidence of Alzheimer's disease in Rheumatoid Arthritis Patients. Abstracts of the American College of Rheumatology, Nov. 8, 2010, Atlanta Ga., Presentation No. 640). […] It is transported to the CNS through the CSF, not by direct spread by cervical vertebral venous system as perceived (Shantha T R and Evans J A: Arachnoid Villi in the Spinal Cord, and Their Relationship to Epidural Anesthesia. Anesthesiology 37:543-557, 1972).

TNF-alpha [8] = target: T1, TNF-alpha; settings: AD patients; cited from earlier work
[9] = cited from earlier work; remark: listed apart in the source
[10] = in vivo; cited from earlier work
[11] = test system: patients with depression associated with neurodegenerative diseases; assay: Intranasal ORE ketamine in patients with depression
amyloid beta = settings: mice, cited from earlier work
[12] = cutaneous T-cell lymphoma, 300-400 mg per m^2 per day for eight weeks; cited from earlier work
[13] = test system: patients with Lyme disease, senile type dementia and early Alzheimer's disease; assay: 2-4-dinitrophenol in Lyme disease, senile type dementia and early Alzheimer's disease; format: in vivo, human; settings: minuscule dose
Description: Exactly how production and aggregation of the beta amyloid peptide gives rise to the pathology of AD even now not known. Accumulation of aggregated amyloid fibrils, which are believed to be the toxic form of the protein responsible for disrupting the cell's calcium ion homeostasis, induces programmed cell death (apoptosis). It known that Aβ selectively builds up in the mitochondria in the cells of Alzheimer's-affected brains, and it inhibits certain enzyme functions and the utilization of glucose by neurons (Chen X, Yan S D. 2006. “Mitochondrial Aβ: a potential cause of metabolic dysfunction in Alzheimer's disease”. IUBMB Life 58 (12): 686-94.). […] We had to discontinue the study due to federal restriction on such use that is not FDA approved.

T1 sequence (P01375 77-233 limits assumed): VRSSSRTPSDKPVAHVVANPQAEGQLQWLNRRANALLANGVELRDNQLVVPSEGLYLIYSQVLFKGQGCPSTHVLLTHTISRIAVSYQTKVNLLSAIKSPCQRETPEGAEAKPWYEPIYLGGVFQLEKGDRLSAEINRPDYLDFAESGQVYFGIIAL

With insulin the “recall from memory during the test” value [1] was “better and more rapid recall from memory”, the test scores [1] was “scored higher in test scores” and the “depression, memory and cognition” value [2] was “reduced the depression, improved the memory, and increased cognition”. For the same compound, the “time to increased insulin levels in cerebrospinal fluid (CSF)” value ([3]; human studies, olfactory mucosal intranasal) was ≤ 60 min, the “effect on blood glucose” value ([3]; normal adults and patients with Alzheimer's disease) was “without altering blood glucose” and the “time to binding to receptors in the hippocampus and the frontal cortex” value [4] was ≤ 60 min. The “story recall and functional status” value ([5]; 3-week daily intranasal insulin, adults with AD and aMCI) was “improved delayed story recall and caregiver-rated functional status”, the “memory, attention and functioning” value ([5]; 21 days olfactory mucosal insulin, early stage AD or mild cognitive impairment, vs placebo) was “enhanced memory, attention, and functioning compared with placebo” and the “enhancement of the activity of methotrexate” value [6] was 10,000 times.

In the case of Etanercept, the “effectiveness of cervical epidural and intranasal ORE delivery” value (TNF-alpha [7]) is listed as “much more effective” and the “cognitive abilities after perispinal administration” value (TNF-alpha [8]) is listed as “improve the cognitive abilities of AD patients”.

For `CNC1(c2ccccc2Cl)CCCCC1=O` (stereo not shown) [ketamine], the “pH of the sterile solution for injection” value ([9]; equivalent of 50 mg ketamine base per milliliter) is listed as 3.5 to 5.5, the “crossing of the blood brain barrier” value [10] is listed as “easily crosses the BBB” and the “depressive condition in early cases” value ([11]; early cases, especially in dementia) is listed as “completely ameliorated the depressive condition”. For the same compound, the depression ([11]; intranasal delivery to the olfactory mucosa, neurodegenerative diseases, cancer, senility, Lyme disease and others) was “reduced or relieved the depression” and the “hallucinogenic or other ill effect” value ([11]; micro doses, 500 micrograms through the ORE) was “no hallucinogenic or other ill effect; also recorded: no hallucinogenic effect”.

For `C=C(c1ccc(C(=O)O)cc1)c1cc2c(cc1C)C(C)(C)CCC2(C)C` [bexarotene], the “ability to sense and respond to odors” value (amyloid beta; after bexarotene treatment) is listed as “improvement in the ability to sense and respond to odors”, the nest making behavior (amyloid beta; by 72 hours after the bexarotene treatment) is listed as “began to use paper to make nests” and the “adverse effects of high dose usage” value [12] is listed as “hypertriglyceridemia, hypercholesterolemia and decreased high-density lipoprotein levels, as well as hypothyroidism”.

For `N[C@@H](Cc1ccc(O)c(O)c1)C(=O)O` [levodopa], the “share that crosses BBB” value [10] is given as 5-10%.

With `O=[N+]([O-])c1ccc(O)c([N+](=O)[O-])c1` [2-4-dinitrophenol] the complications [13] was “without a single complication” and the “pathological changes, memory and cognition” value ([13]; unpublished data 2004) was “reduces these pathological changes and improves the memory and cognition”.

In the case of `CNC(=O)Oc1ccc2c(c1)[C@]1(C)CCN(C)[C@@H]1N2C` [Physostigmine Salicylate], the “pH of aqueous solution” value ([9]; 0.5% aqueous solution) is given as 5.8 and the solubility in water [9] is given as “soluble in water”.

For `CNC(=O)Oc1ccc2c(c1)[C@]1(C)CCN(C)[C@@H]1N2C` [physostigmine], the “crossing of the blood brain barrier” value [10] is listed as “can cross the blood-brain barrier”.
